These results are taken from paper PMC5491903, “The Selective Phosphoinoside-3-Kinase p110δ Inhibitor IPI-3063 Potently Suppresses B Cell Survival, Proliferation, and Differentiation” (Frontiers in Immunology, 2017).

Test [1] deals with phosphorylation of AKT at serine 473 in mouse primary B cells. Description: p-AKT (S473) western blot in αIgM + IL-4 stimulated mouse B cells. In kind it is cell-based. The method, then: IPI-3063 is a p110δ selective compound with an IC50 = 0.1 nM in p110δ-specific cell-based assays and cellular IC50 values for the other class I PI3K isoforms are at least 1,000-fold higher (Table 2) ([11]). […] To test the effects of p110γ inhibition, we used AS-252424 compound with a biochemical IC50 = 30 nM for p110γ ([17]). We assessed the effects of both IPI-3063 and IPI-443 on PI3K activity in mouse primary B cells stimulated with αIgM + IL-4, by evaluating phosphorylation of AKT at the serine 473 residue (Figures 1A,C) as well as the phosphorylation of ERK1/2 on Thr202/Tyr204 residues (Figures 1B,C). Cells were treated with a pan-PI3K inhibitor GDC-0941 or with various concentrations of IPI-3063 or IPI-443, or DMSO (0.1%) as the diluent control. Separate cultures were treated with the p110γ inhibitor AS-252424 or its diluent control (0.1% EtOH). MK-2206, an AKT inhibitor, which also reduces AKT S473 phosphorylation, was also used as a control to show ERK1/2 phosphorylation is independent of AKT activity. […]
Analysis was performed on western blots using ImageJ to measure mean fluorescence intensities of each band. Phospho-AKT S473 and phospho-ERK1/2 signal was normalized with actin measurements and fold change was calculated using the stimulated/no drug control.
A general note: Immunoblotting shows a protein as a band on a membrane.

For the next test, the system named is mouse B cells. Description: mouse B cell survival (B220+7AAD- viability, 48 h). The test is classed as cell-based. The method, then: To assess survival, purified mouse B cells were incubated for 48 h in either B-cell activating factor (BAFF) or interleukin-4 (IL-4) with various concentrations of IPI-3063 and IPI-443. […] The selective PI3K inhibitor IPI-3063 was very potent, achieving a significant decrease in B cell survival when present at 10 nM.
Total splenocytes were pretreated with inhibitors as indicated, then cultured with 10 ng/mL IL-4 (A) or 60 ng/mL of BAFF (B) for 48 h. Concentrations used were 1 nM, 10 nM, 100 nM, 1 µM for IPI-443 and 1, 10, 30, 100 nM for IPI-3063. AS252424 concentrations were 100 nM, 300 nM, and 1 µM, and GDC-0941 was at 500 nM. % viability was calculated by measuring % of B220^+7AAD^− cells. Samples were collected by time. (*P < 0.05, **P < 0.001, ***P < 0.0001 one-way ANOVA with Newman–Keuls multiple comparison test).

In the case of `O=C1NC(=O)/C(=C/c2ccc(-c3ccc(F)cc3O)o2)S1` [AS-252424, reference compound], in test [1] (αIgM + IL-4, 100 nM, 300 nM, 1 µM), the “effect on p-AKT signaling” value is on record as “no significant effect”. The effect on survival result with mouse B cells (BAFF or IL-4, 48 h) is recorded as “no significant effect”.
`CC(C)n1c([C@H](C)Nc2ncnc(N)c2C#N)cc2cccc(-c3ccc(=O)n(C)c3)c2c1=O` [IPI-3063]: the “concentration with significant reduction of p-AKT” value in test [1] (αIgM + IL-4, 30 min pretreatment, 1 h stimulation) was 1 nM. The “concentration with significant decrease in B cell survival” value with mouse B cells (BAFF, 48 h) came out at 10 nM.
